The target of the test is T1, human recombinant, purified wild type His-B-Raf protein kinase (Homo sapiens, UniProt P15056).
T1 construct: His
T1 sequence (P15056 whole entry): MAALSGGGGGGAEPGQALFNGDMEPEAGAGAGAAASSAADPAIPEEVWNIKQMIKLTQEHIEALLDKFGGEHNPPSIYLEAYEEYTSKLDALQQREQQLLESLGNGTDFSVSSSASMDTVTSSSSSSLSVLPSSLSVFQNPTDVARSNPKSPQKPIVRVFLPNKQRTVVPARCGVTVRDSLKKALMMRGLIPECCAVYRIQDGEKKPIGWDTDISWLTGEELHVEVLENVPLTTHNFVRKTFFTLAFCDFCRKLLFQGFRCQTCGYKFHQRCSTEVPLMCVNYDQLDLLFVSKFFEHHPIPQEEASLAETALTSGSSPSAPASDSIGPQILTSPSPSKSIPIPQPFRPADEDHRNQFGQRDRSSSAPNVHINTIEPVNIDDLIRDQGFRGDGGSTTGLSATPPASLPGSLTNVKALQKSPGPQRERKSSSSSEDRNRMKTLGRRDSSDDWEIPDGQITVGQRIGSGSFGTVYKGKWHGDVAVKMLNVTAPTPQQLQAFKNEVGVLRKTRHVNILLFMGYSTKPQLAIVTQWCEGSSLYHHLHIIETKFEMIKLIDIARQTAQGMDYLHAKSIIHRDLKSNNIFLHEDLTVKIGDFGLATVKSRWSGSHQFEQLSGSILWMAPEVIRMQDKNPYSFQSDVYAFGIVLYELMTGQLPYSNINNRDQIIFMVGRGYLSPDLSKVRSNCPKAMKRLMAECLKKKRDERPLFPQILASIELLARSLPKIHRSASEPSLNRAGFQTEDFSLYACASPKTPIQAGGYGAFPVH
Put plainly: B-Raf In Vitro ELISA Assay. In kind it is biochemical. The note with it: phosphorylation of MEK1; 2.5 nM B-Raf, 0.15 μM MEK1, 10 μM ATP. Here is the method:
B-Raf In Vitro ELISA Assay
Activity of human recombinant, purified wild type His-B-Raf protein kinase was determined in vitro using an enzyme-linked immunosorbent assay (ELISA) assay format, which measures phosphorylation of the B-Raf substrate, human recombinant, purified His-derived (detagged) MEK1. The reaction utilized 2.5 nM B-Raf, 0.15 μM MEK1 and 10 μM adenosine triphosphate (ATP) in 40 mM N-(2-hydroxyethyl)piperazine-N′-(2-ethanesulfonic acid hemisodium salt (HEPES), 5 mM 1,4-dithio-DL-threitol (DTT), 10 mM MgCl2, 1 mM ethylenediaminetetraacetic acid (EDTA) and 0.2M NaCl (1×HEPES buffer), with or without compound at various concentrations, in a total reaction volume of 25 μl in 384 well plates. B-Raf and compound were preincubated in 1×HEPES buffer for 1 hour at 25° C. Reactions were initiated with addition of MEK1 and ATP in 1×HEPES buffer and incubated at 25° C. for 50 minutes and reactions stopped by addition of 10 μl 175 mM EDTA (final concentration 50 mM) in 1×HEPES buffer. 5 μl of the assay mix was then diluted 1:20 into 50 mM EDTA in 1×HEPES buffer, transferred to 384 well black high protein binding plates and incubated for 12 h at 4° C. Plates were washed in tris buffered saline containing 0.1% Tween20 (TBST), blocked with 50 μl Superblock (Pierce) for 1 hour at 25° C., washed in TBST, incubated with 50 μl rabbit polyclonal anti-phospho-MEK antibody (Cell Signaling) diluted 1:1000 in TBS for 2 h at 25° C., washed with TBST, incubated with 50 μl goat anti-rabbit horseradish peroxidase-linked antibody (Cell Signaling) diluted 1:2000 in TBS for 1 hour at 25° C. and washed with TBST. 50 μl of fluorogenic peroxidase substrate (Quantablu—Pierce) was added and following incubation for 45-60 mins, 50 μl QuantabluSTOP (Pierce) was added. Blue fluorescent product was detected at excitation 325 nm and emission 420 nm using a TECAN Ultra plate reader. Data was graphed and IC50s calculated using Excel Fit (Microsoft).
For `Cc1ccc(NC(=O)c2cccc(C(C)(C)C#N)c2)cc1N(C)c1ccc2ncn(C)c(=O)c2c1` [Example 33, 3-(Cyano-dimethyl-methyl)-N-{4-methyl-3-[methyl-(3-methyl-4-oxo-3,4-dihydro-quinazolin-6-yl)-amino]-phenyl}-beazamide], the IC50 stood at 1930 nM.
In the case of `Cc1nc2ccc(Nc3cc(NC(=O)c4cccc(C(C)(C)C#N)c4)ccc3C)cc2c(=O)[nH]1` [Example 4, 3-(1-Cyano-1-methylethyl)-N-{4-methyl-3-[(2-methyl-4-oxo-3,4-dihydroquinazolin-6-yl)amino]phenyl}-benzamide], the IC50 is 186 nM.
The same measure for `Cc1ccc(NC(=O)c2cccc(C(C)(C)C#N)c2)cc1Nc1ccc2ncn(CCCN3CCOCC3)c(=O)c2c1` [Example 7, 3-(1-Cyano-1-methylethyl)-N-(4-methyl-3-{[3-(3-morpholin-4-ylpropyl)-4-oxo-3,4-dihydroquinazolin-6-yl]amino}phenyl)-benzamide]: 347 nM.

The values above are taken from US20090118261A1, “QUINAZOLINONE DERIVATIVES AND THEIR USE AS B-RAF INHIBITORS” (ASTRAZENECA AB, priority 2004, published 2009).
